Laboratory results as given in PubChem BioAssay (NCI).
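Interpolation was linear, between the two tested concentrations surrounding the appropriate level; five concentrations were tested over 48 hours in 96-well plates. TGI: concentration producing complete growth inhibition.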

Legend:
Assay in all cases: NCI anticancer screen, dose series, 48 h
UACC-257 melanoma = tested on: UACC-257 melanoma
CCRF-CEM leukemia = tested on: CCRF-CEM leukemia
ACHN renal = tested on: ACHN renal
COLO 205 colon = tested on: COLO 205 colon
IGROV1 ovarian = tested on: IGROV1 ovarian
HCT-116 colon = tested on: HCT-116 colon
SK-MEL-28 melanoma = tested on: SK-MEL-28 melanoma
HT29 colon = tested on: HT29 colon
RPMI-8226 leukemia = tested on: RPMI-8226 leukemia
NCI-H23 lung = tested on: NCI-H23 lung
SW-620 colon = tested on: SW-620 colon

`Nc1ccc2c(c1)N(C(=O)CCCC(=O)N1CC(CCl)c3ccc(N)cc31)CC2CCl` (stereo not given) was tested, and the TGI (UACC-257 melanoma) was over 50 µM, the TGI (CCRF-CEM leukemia) was over 20.1 µM and the TGI (ACHN renal) was over 41 µM. It also gave a TGI (COLO 205 colon) of 2.1 µM, a TGI (IGROV1 ovarian) of over 11.3 µM and a TGI (HCT-116 colon) of over 50 µM. The TGI (SK-MEL-28 melanoma) was over 14.4 µM, the TGI (HT29 colon) was over 13.5 µM and the TGI (RPMI-8226 leukemia) was over 10.2 µM. It also gave a TGI (NCI-H23 lung) of 4.16 µM and a TGI (SW-620 colon) of over 50 µM.

`COc1ccc(/C=C/C(=O)c2cccc(C(=O)/C=C/c3ccc(OC)c(OC)c3)n2)cc1OC` gave a TGI (UACC-257 melanoma) of 99.4 µM, a TGI (CCRF-CEM leukemia) of 6.29 µM and a TGI (ACHN renal) of over 100 µM. For the same molecule, the TGI (COLO 205 colon) was over 100 µM, the TGI (IGROV1 ovarian) was over 95.5 µM and the TGI (HCT-116 colon) was 27.6 µM. The TGI (SK-MEL-28 melanoma) was 45 µM, the TGI (HT29 colon) was 31.6 µM and the TGI (RPMI-8226 leukemia) was over 22.6 µM. It also gave a TGI (NCI-H23 lung) of over 100 µM and a TGI (SW-620 colon) of 15.9 µM.

`CCOC(=O)NC(Nc1cccc(F)c1)(C(F)(F)F)C(F)(F)F` gave a TGI (UACC-257 melanoma) of over 100 µM, a TGI (CCRF-CEM leukemia) of over 100 µM and a TGI (ACHN renal) of over 100 µM. The TGI (COLO 205 colon) was over 100 µM, the TGI (IGROV1 ovarian) was over 100 µM and the TGI (HCT-116 colon) was over 100 µM. For the same molecule, the TGI (SK-MEL-28 melanoma) was over 100 µM, the TGI (HT29 colon) was over 100 µM and the TGI (RPMI-8226 leukemia) was over 100 µM. It also gave a TGI (NCI-H23 lung) of over 100 µM and a TGI (SW-620 colon) of over 100 µM.

Work on `COP(=N[Si](C)(C)C)(OC)OC` yielded a TGI (UACC-257 melanoma) of over 100 µM, a TGI (CCRF-CEM leukemia) of over 100 µM and a TGI (ACHN renal) of over 100 µM. For the same molecule, the TGI (COLO 205 colon) was over 100 µM, the TGI (IGROV1 ovarian) was over 100 µM and the TGI (HCT-116 colon) was over 100 µM. The TGI (SK-MEL-28 melanoma) was over 100 µM, the TGI (HT29 colon) was over 100 µM and the TGI (RPMI-8226 leukemia) was over 100 µM. It also gave a TGI (NCI-H23 lung) of over 100 µM and a TGI (SW-620 colon) of over 100 µM.

For `CC(C)/C(Cl)=N/OC(NC(=O)Nc1ccc(Cl)c(Cl)c1)(C(F)(F)F)C(F)(F)F`, the TGI (UACC-257 melanoma) was 25.9 µM, the TGI (CCRF-CEM leukemia) was 5.71 µM and the TGI (ACHN renal) was 24.9 µM. For the same molecule, the TGI (COLO 205 colon) was 9.27 µM, the TGI (IGROV1 ovarian) was 35.2 µM and the TGI (HCT-116 colon) was 19.7 µM. For the same molecule, the TGI (SK-MEL-28 melanoma) was 35.3 µM, the TGI (HT29 colon) was 53.7 µM and the TGI (RPMI-8226 leukemia) was 4.7 µM. For the same molecule, the TGI (NCI-H23 lung) was 38.2 µM and the TGI (SW-620 colon) was 3.92 µM.

Molecule `Cc1cccc2c1CC(C1OC(=O)c3c(C)cccc31)C2=O` (stereo not given) has a TGI (UACC-257 melanoma) of over 100 µM, a TGI (CCRF-CEM leukemia) of over 100 µM and a TGI (ACHN renal) of over 100 µM. It also gave a TGI (COLO 205 colon) of over 100 µM, a TGI (IGROV1 ovarian) of over 100 µM and a TGI (HCT-116 colon) of over 100 µM. The TGI (SK-MEL-28 melanoma) was over 100 µM, the TGI (HT29 colon) was over 100 µM and the TGI (RPMI-8226 leukemia) was over 100 µM. For the same molecule, the TGI (NCI-H23 lung) was over 100 µM and the TGI (SW-620 colon) was over 100 µM.

`CCOc1cc(NC(C)=O)ccc1C(=O)NN1C(=O)C(Cl)C1c1ccc(O)c(OC)c1` (stereo not given) was tested, and the TGI (UACC-257 melanoma) was 27 µM, the TGI (CCRF-CEM leukemia) was 25.8 µM and the TGI (ACHN renal) was 30.3 µM. The TGI (COLO 205 colon) was 35.1 µM, the TGI (IGROV1 ovarian) was 28.2 µM and the TGI (HCT-116 colon) was 37.7 µM. It also gave a TGI (SK-MEL-28 melanoma) of 38.2 µM, a TGI (HT29 colon) of 31.9 µM and a TGI (RPMI-8226 leukemia) of 40.5 µM. It also gave a TGI (NCI-H23 lung) of 25.4 µM and a TGI (SW-620 colon) of 60.1 µM.

With `COC(=O)C1=C(O)C(C(=O)OC)[C@]2(O)[C@H](C(=O)OC)[C@H]1C[C@@H](c1ccc(O)cc1)[C@H]2C(=O)OC` (stereo not given in full) the TGI (UACC-257 melanoma) was over 100 µM, the TGI (CCRF-CEM leukemia) was over 100 µM and the TGI (ACHN renal) was over 100 µM. For the same molecule, the TGI (COLO 205 colon) was over 100 µM, the TGI (IGROV1 ovarian) was over 100 µM and the TGI (HCT-116 colon) was 94.3 µM. The TGI (SK-MEL-28 melanoma) was over 100 µM, the TGI (HT29 colon) was over 100 µM and the TGI (RPMI-8226 leukemia) was over 100 µM. The TGI (NCI-H23 lung) was over 100 µM and the TGI (SW-620 colon) was over 100 µM.

With `CC1=CC(=C(c2ccc(N)c(C)c2)c2ccc(N)c(C)c2)C=CC1=N` the TGI (UACC-257 melanoma) was 15.7 µM, the TGI (CCRF-CEM leukemia) was 23 µM and the TGI (ACHN renal) was 69.2 µM. For the same molecule, the TGI (COLO 205 colon) was 5.87 µM, the TGI (IGROV1 ovarian) was 71.8 µM and the TGI (HCT-116 colon) was 13.3 µM. The TGI (SK-MEL-28 melanoma) was 19.2 µM, the TGI (HT29 colon) was 15.6 µM and the TGI (RPMI-8226 leukemia) was 29.6 µM. For the same molecule, the TGI (NCI-H23 lung) was 12.5 µM and the TGI (SW-620 colon) was 17.7 µM.

Molecule `CC[N+](C)(C)c1ccc(C(=C2C=CC(=[N+](C)C)C=C2)c2ccc(N(C)C)cc2)cc1` has a TGI (UACC-257 melanoma) of 28.6 µM, a TGI (CCRF-CEM leukemia) of 33.5 µM and a TGI (ACHN renal) of 62.1 µM. The TGI (COLO 205 colon) was over 100 µM, the TGI (IGROV1 ovarian) was 40.8 µM and the TGI (HCT-116 colon) was 19.5 µM. The TGI (SK-MEL-28 melanoma) was 52.4 µM, the TGI (HT29 colon) was 30.6 µM and the TGI (RPMI-8226 leukemia) was 7.36 µM. The TGI (NCI-H23 lung) was 55 µM and the TGI (SW-620 colon) was 52.1 µM.

Work on `CCOC(=O)C12C3CCC1C2C(=O)C3` (stereo not given) yielded a TGI (UACC-257 melanoma) of over 100 µM, a TGI (CCRF-CEM leukemia) of over 100 µM and a TGI (ACHN renal) of over 100 µM. For the same molecule, the TGI (COLO 205 colon) was over 100 µM, the TGI (IGROV1 ovarian) was over 100 µM and the TGI (HCT-116 colon) was over 100 µM. The TGI (SK-MEL-28 melanoma) was over 100 µM, the TGI (HT29 colon) was over 100 µM and the TGI (RPMI-8226 leukemia) was over 100 µM. The TGI (NCI-H23 lung) was over 100 µM and the TGI (SW-620 colon) was over 100 µM.

`CCCCCCCCCCCCOCCCCCCCCC/C=C/c1ccc2c(c1)OCCOCCOCCOCCO2` was tested, and the TGI (UACC-257 melanoma) was 73.2 µM, the TGI (CCRF-CEM leukemia) was over 100 µM and the TGI (ACHN renal) was 43.1 µM. For the same molecule, the TGI (COLO 205 colon) was 35.2 µM, the TGI (IGROV1 ovarian) was 50.6 µM and the TGI (HCT-116 colon) was 29.5 µM. The TGI (SK-MEL-28 melanoma) was over 100 µM, the TGI (HT29 colon) was 45.4 µM and the TGI (RPMI-8226 leukemia) was 64.5 µM. For the same molecule, the TGI (NCI-H23 lung) was 30.9 µM and the TGI (SW-620 colon) was over 100 µM.

For `Cc1ccc([N+](=O)[O-])cc1S(=O)(=O)Nc1ccc(C2=NOC(c3ccccc3)C2)cc1` (stereo not given), the TGI (UACC-257 melanoma) was 79.6 µM, the TGI (CCRF-CEM leukemia) was 59.2 µM and the TGI (ACHN renal) was 50.4 µM. It also gave a TGI (COLO 205 colon) of 33.8 µM, a TGI (IGROV1 ovarian) of over 100 µM and a TGI (HCT-116 colon) of 24.1 µM. The TGI (SK-MEL-28 melanoma) was over 100 µM, the TGI (HT29 colon) was 43.8 µM and the TGI (RPMI-8226 leukemia) was 34.6 µM. It also gave a TGI (NCI-H23 lung) of over 100 µM and a TGI (SW-620 colon) of 59.1 µM.

Molecule `CC12CC(=O)OC(Cc3ccccc31)O2` (stereo not given) has a TGI (UACC-257 melanoma) of over 100 µM, a TGI (CCRF-CEM leukemia) of over 100 µM and a TGI (ACHN renal) of over 100 µM. It also gave a TGI (COLO 205 colon) of over 100 µM, a TGI (IGROV1 ovarian) of over 100 µM and a TGI (HCT-116 colon) of over 100 µM. The TGI (SK-MEL-28 melanoma) was over 100 µM, the TGI (HT29 colon) was over 100 µM and the TGI (RPMI-8226 leukemia) was over 100 µM. It also gave a TGI (NCI-H23 lung) of over 100 µM and a TGI (SW-620 colon) of over 100 µM.

For `CCOC(=O)NC(OCCN(C)C)(C(F)(F)F)C(F)(F)F`, the TGI (UACC-257 melanoma) was over 100 µM, the TGI (CCRF-CEM leukemia) was over 100 µM and the TGI (ACHN renal) was over 100 µM. The TGI (COLO 205 colon) was over 100 µM, the TGI (IGROV1 ovarian) was over 100 µM and the TGI (HCT-116 colon) was over 100 µM. For the same molecule, the TGI (SK-MEL-28 melanoma) was over 100 µM, the TGI (HT29 colon) was over 100 µM and the TGI (RPMI-8226 leukemia) was over 100 µM. It also gave a TGI (NCI-H23 lung) of over 100 µM and a TGI (SW-620 colon) of over 100 µM.
